Reference: paper PMC11728000, “Antitumor Activity and Multi-Target Mechanism of Phenolic Schiff Bases Bearing Methanesulfonamide Fragments: Cell Cycle Analysis and a Molecular Modeling Study” (International Journal of Molecular Sciences, 2024)
Read-outs that look alike come from different tables or passages of the source.

Columns and labels:
K-562 = test system: K-562; set-up: method as in https://dtp.cancer.gov/dtpstandard/dwindex/index.jsp; conditions: ref https://dtp.cancer.gov/dtpstandard/dwindex/index.jsp; cited from earlier work
A549/ATCC [1] = test system: A549/ATCC; set-up: method as in https://dtp.cancer.gov/dtpstandard/dwindex/index.jsp; conditions: ref https://dtp.cancer.gov/dtpstandard/dwindex/index.jsp; cited from earlier work
NCI-H460 = test system: NCI-H460; set-up: method as in https://dtp.cancer.gov/dtpstandard/dwindex/index.jsp; conditions: ref https://dtp.cancer.gov/dtpstandard/dwindex/index.jsp; cited from earlier work
COLO 205 = test system: COLO 205; set-up: method as in https://dtp.cancer.gov/dtpstandard/dwindex/index.jsp; conditions: ref https://dtp.cancer.gov/dtpstandard/dwindex/index.jsp; cited from earlier work
HCC-2998 = test system: HCC-2998; set-up: method as in https://dtp.cancer.gov/dtpstandard/dwindex/index.jsp; conditions: ref https://dtp.cancer.gov/dtpstandard/dwindex/index.jsp; cited from earlier work
HCT-15 = test system: HCT-15; set-up: method as in https://dtp.cancer.gov/dtpstandard/dwindex/index.jsp; conditions: ref https://dtp.cancer.gov/dtpstandard/dwindex/index.jsp; cited from earlier work
HT29 = test system: HT29; set-up: method as in https://dtp.cancer.gov/dtpstandard/dwindex/index.jsp; conditions: ref https://dtp.cancer.gov/dtpstandard/dwindex/index.jsp; cited from earlier work
SF-268 = test system: SF-268; set-up: method as in https://dtp.cancer.gov/dtpstandard/dwindex/index.jsp; conditions: ref https://dtp.cancer.gov/dtpstandard/dwindex/index.jsp; cited from earlier work
SF-295 = test system: SF-295; set-up: method as in https://dtp.cancer.gov/dtpstandard/dwindex/index.jsp; conditions: ref https://dtp.cancer.gov/dtpstandard/dwindex/index.jsp; cited from earlier work
SNB-19 = test system: SNB-19; set-up: method as in https://dtp.cancer.gov/dtpstandard/dwindex/index.jsp; conditions: ref https://dtp.cancer.gov/dtpstandard/dwindex/index.jsp; cited from earlier work
U251 = test system: U251; set-up: method as in https://dtp.cancer.gov/dtpstandard/dwindex/index.jsp; conditions: ref https://dtp.cancer.gov/dtpstandard/dwindex/index.jsp; cited from earlier work
MALME-3M [2] = test system: MALME-3M; set-up: method as in https://dtp.cancer.gov/dtpstandard/dwindex/index.jsp; conditions: ref https://dtp.cancer.gov/dtpstandard/dwindex/index.jsp; cited from earlier work
SK-MEL-2 = test system: SK-MEL-2; set-up: method as in https://dtp.cancer.gov/dtpstandard/dwindex/index.jsp; conditions: ref https://dtp.cancer.gov/dtpstandard/dwindex/index.jsp; cited from earlier work
SK-MEL-28 = test system: SK-MEL-28; set-up: method as in https://dtp.cancer.gov/dtpstandard/dwindex/index.jsp; conditions: ref https://dtp.cancer.gov/dtpstandard/dwindex/index.jsp; cited from earlier work
OVCAR-4 = test system: OVCAR-4; set-up: method as in https://dtp.cancer.gov/dtpstandard/dwindex/index.jsp; conditions: ref https://dtp.cancer.gov/dtpstandard/dwindex/index.jsp; cited from earlier work
NCI/ADR-RES = test system: NCI/ADR-RES; set-up: method as in https://dtp.cancer.gov/dtpstandard/dwindex/index.jsp; conditions: ref https://dtp.cancer.gov/dtpstandard/dwindex/index.jsp; cited from earlier work
SN12C = test system: SN12C; set-up: method as in https://dtp.cancer.gov/dtpstandard/dwindex/index.jsp; conditions: ref https://dtp.cancer.gov/dtpstandard/dwindex/index.jsp; cited from earlier work
MCF-7 = test system: MCF-7; set-up: method as in https://dtp.cancer.gov/dtpstandard/dwindex/index.jsp; conditions: ref https://dtp.cancer.gov/dtpstandard/dwindex/index.jsp; cited from earlier work
BT-549 = test system: BT-549; set-up: method as in https://dtp.cancer.gov/dtpstandard/dwindex/index.jsp; conditions: ref https://dtp.cancer.gov/dtpstandard/dwindex/index.jsp; cited from earlier work
T-47D = test system: T-47D; set-up: method as in https://dtp.cancer.gov/dtpstandard/dwindex/index.jsp; conditions: ref https://dtp.cancer.gov/dtpstandard/dwindex/index.jsp; cited from earlier work
[3] = test system: Leukemia subpanel tumor cell lines; conditions: cited from earlier work; for GI50: read-out: GI50, subpanel average, ref https://dtp.cancer.gov/dtpstandard/dwindex/index.jsp; for CC50: read-out: LC50, subpanel average, ref https://dtp.cancer.gov/dtpstandard/dwindex/index.jsp; for TGI, subpanel average: ref https://dtp.cancer.gov/dtpstandard/dwindex/index.jsp
[4] = test system: NSC Lung Cancer subpanel tumor cell lines; conditions: cited from earlier work; for GI50: read-out: GI50, subpanel average, ref https://dtp.cancer.gov/dtpstandard/dwindex/index.jsp; for CC50: read-out: LC50, subpanel average, ref https://dtp.cancer.gov/dtpstandard/dwindex/index.jsp; for TGI, subpanel average: ref https://dtp.cancer.gov/dtpstandard/dwindex/index.jsp
[5] = test system: Colon Cancer subpanel tumor cell lines; conditions: cited from earlier work; for GI50: read-out: GI50, subpanel average, ref https://dtp.cancer.gov/dtpstandard/dwindex/index.jsp; for CC50: read-out: LC50, subpanel average, ref https://dtp.cancer.gov/dtpstandard/dwindex/index.jsp; for TGI, subpanel average: ref https://dtp.cancer.gov/dtpstandard/dwindex/index.jsp
[6] = test system: Breast Cancer subpanel tumor cell lines; conditions: cited from earlier work; for GI50: read-out: GI50, subpanel average, ref https://dtp.cancer.gov/dtpstandard/dwindex/index.jsp; for TGI, subpanel average: ref https://dtp.cancer.gov/dtpstandard/dwindex/index.jsp; for CC50: read-out: LC50, subpanel average, ref https://dtp.cancer.gov/dtpstandard/dwindex/index.jsp
CCRF-CEM = assay: NCI anticancer screening (SRB), Leukemia subpanel; assay type: cell-based, human; conditions: for GI%: 10.0 µM in one dose
A549/ATCC [7] = assay: NCI anticancer screening (SRB), Non-Small Cell Lung Cancer subpanel; assay type: cell-based, human; conditions: for GI%: 10.0 µM in one dose
HOP-92 = assay: as above; assay type: cell-based, human; conditions: for GI%: 10.0 µM in one dose
MALME-3M [8] = assay: NCI anticancer screening (SRB), Melanoma subpanel; assay type: cell-based, human; conditions: for GI%: 10.0 µM in one dose
PC-3 = assay: NCI anticancer screening (SRB), Prostate Cancer subpanel; assay type: cell-based, human; conditions: for GI%: 10.0 µM in one dose
Bax = assay: Apoptotic markers assay, Bax expression in MCF-7 cells; assay type: cell-based, human; conditions: MCF-7 cells treated at IC50 concentrations; vs untreated control = 1
Procedure: We measured the apoptosis promoter Bax levels, the apoptosis inhibitor Bcl−2, and the apoptosis coordination enzymes caspase-8 and caspase-9 [32].
The apoptotic marker method was carried out using the reported procedure using MCF-7, the cancer cell line (Supplementary Materials). […]
(cells are Plated […]
in a density of 1.2-1.8 X 10,000 cells/well in a volume of 100 µL complete growth medium + 100 µL of the tested compound per well in a 96-well plate for 24/48 h before the enzyme assay).
8. Evaluation of Bax and Bcl-2 expressions m RNA isolation was carried out using an RNeasy extraction kit, up to 1 X 107 cells. They were disrupted in Buffer RLT and homogenized. Ethanol was added to the lysate to promote the selective binding of RNA to the RNeasy membrane. Then, the sample was applied to the RNeasy […]
Mini spin column. Total RNA bound to the membrane. High-quality RNA was eluted using […]
(1 picture or pasted object on this page, not shown here)

HER2 = HER2 (Homo sapiens, UniProt P04626); assay: HER2 tyrosine kinase inhibition assay (ADP-Glo)
Sequence of HER2 (P04626 23-1255): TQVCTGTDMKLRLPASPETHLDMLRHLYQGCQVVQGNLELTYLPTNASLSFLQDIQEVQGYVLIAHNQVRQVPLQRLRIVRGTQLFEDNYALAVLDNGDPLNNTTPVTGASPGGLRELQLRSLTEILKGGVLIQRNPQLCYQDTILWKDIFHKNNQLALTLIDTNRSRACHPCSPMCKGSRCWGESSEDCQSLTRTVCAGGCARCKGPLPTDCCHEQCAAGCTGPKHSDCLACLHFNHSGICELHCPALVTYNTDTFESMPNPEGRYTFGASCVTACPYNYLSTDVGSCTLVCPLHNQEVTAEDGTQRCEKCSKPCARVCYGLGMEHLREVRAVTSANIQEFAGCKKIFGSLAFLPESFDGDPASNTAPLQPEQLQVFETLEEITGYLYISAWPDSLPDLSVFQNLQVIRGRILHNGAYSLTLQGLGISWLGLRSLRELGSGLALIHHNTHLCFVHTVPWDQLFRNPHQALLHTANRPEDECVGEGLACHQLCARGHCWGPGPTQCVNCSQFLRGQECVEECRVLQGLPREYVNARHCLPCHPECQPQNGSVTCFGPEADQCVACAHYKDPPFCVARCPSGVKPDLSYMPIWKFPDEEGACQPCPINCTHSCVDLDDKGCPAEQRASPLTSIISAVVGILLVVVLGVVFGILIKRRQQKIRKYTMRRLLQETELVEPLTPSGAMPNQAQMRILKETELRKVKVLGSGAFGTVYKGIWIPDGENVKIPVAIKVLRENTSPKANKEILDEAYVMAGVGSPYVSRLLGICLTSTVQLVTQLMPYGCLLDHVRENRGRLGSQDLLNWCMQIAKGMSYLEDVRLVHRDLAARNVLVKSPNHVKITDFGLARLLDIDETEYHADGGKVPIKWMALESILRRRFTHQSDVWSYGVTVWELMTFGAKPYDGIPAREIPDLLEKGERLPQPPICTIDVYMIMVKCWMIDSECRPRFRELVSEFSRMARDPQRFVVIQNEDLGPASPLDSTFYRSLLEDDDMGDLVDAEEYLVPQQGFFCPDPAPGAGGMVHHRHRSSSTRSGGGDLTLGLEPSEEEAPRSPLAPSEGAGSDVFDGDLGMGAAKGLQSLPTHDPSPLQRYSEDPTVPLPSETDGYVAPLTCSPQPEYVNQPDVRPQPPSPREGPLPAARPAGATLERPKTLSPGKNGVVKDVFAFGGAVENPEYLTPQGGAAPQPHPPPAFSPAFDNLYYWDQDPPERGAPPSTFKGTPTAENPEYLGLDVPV

NCI-H226 = test system: NCI-H226; set-up: method as in https://dtp.cancer.gov/dtpstandard/dwindex/index.jsp; conditions: ref https://dtp.cancer.gov/dtpstandard/dwindex/index.jsp; cited from earlier work
HCT-116 = test system: HCT-116; set-up: method as in https://dtp.cancer.gov/dtpstandard/dwindex/index.jsp; conditions: ref https://dtp.cancer.gov/dtpstandard/dwindex/index.jsp; cited from earlier work
[9] = Homo sapiens, five concentrations

SMILES	GI50 (K-562)	GI50 (A549/ATCC [1])	GI50 (NCI-H460)	GI50 (COLO 205)	GI50 (HCC-2998)	GI50 (HCT-15)	GI50 (HT29)	GI50 (SF-268)	GI50 (SNB-19)	GI50 (U251)	GI50 (MALME-3M [2])	GI50 (SK-MEL-2)	GI50 (SK-MEL-28)	GI50 (NCI/ADR-RES)	GI50 (SN12C)	GI50 (BT-549)	GI50 [3]	TGI, subpanel average [3]	TGI, subpanel average [4]	GI50 [5]	further results
Cc1ccc(-c2cc(C(F)(F)F)nn2-c2ccc(S(N)(=O)=O)cc2)cc1 [Celecoxib, celecoxib]	10 µM	15.8 µM	15.8 µM	15.8 µM	15.8 µM	15.8 µM	15.8 µM	15.8 µM	19.9 µM	15.8 µM	19.9 µM	15.8 µM	15.8 µM	15.8 µM	15.8 µM	19.9 µM	12.3 µM	29.27 µM	41.93 µM	20.7 µM	GI50 (SF-295): 15.8 µM; GI50 (OVCAR-4): 12.6 µM; GI50 (MCF-7): 15.8 µM; GI50 (T-47D): 15.8 µM; CC50 [3]: 67.1 µM; GI50 [4]: 25.1 µM; CC50 [4]: 67.1 µM; CC50 [5]: 66.5 µM; TGI, subpanel average [5]: 41.39 µM; GI50 [6]: 17.5 µM; TGI, subpanel average [6]: 34.89 µM
CS(=O)(=O)Nc1ccc(C(=O)NN=Cc2ccccc2O)cc1 [Compound 7]																					GI% (CCRF-CEM): 63%; GI% (A549/ATCC [7]): 11%; GI% (HOP-92): 44%; GI% (MALME-3M [8]): 24%; GI% (PC-3): 38%; Bax, Gene Expression (Fold Change) (Bax): 5.02 fold change; IC50 (HER2): 0.183 ± 0.011 µM
CCN(CC)c1ccc(C=NNC(=O)c2ccc(NS(C)(=O)=O)cc2)c(O)c1 [Compound 8]																					GI% (CCRF-CEM): 94%; GI50 (CCRF-CEM; [9]): 0.177 µM; GI% (A549/ATCC [7]): 88%; GI50 (A549/ATCC [7]; [9]): 1.34 µM; GI% (HOP-92): 61%; GI50 (HOP-92; [9]): 0.443 µM; GI% (MALME-3M [8]): 96%; GI50 (MALME-3M [8]; [9]): 0.855 µM; GI% (PC-3): 68%; GI50 (PC-3; [9]): 0.368 µM; Bax, Gene Expression (Fold Change) (Bax): 5.456 fold change; IC50 (HER2): 0.464 ± 0.018 µM
C#Cc1cccc(Nc2ncnc3cc(OCCOC)c(OCCOC)cc23)c1 [Erlotinib, erlotinib]	31.6 µM	10 µM	6.31 µM	50.1 µM	79.4 µM	3.98 µM	63.1 µM	15.8 µM	12.6 µM	25.1 µM	1.58 µM	6.31 µM	50.1 µM	7.94 µM	1.58 µM	31.6 µM	27.9 µM	96.57 µM	73.76 µM	51.7 µM	GI50 (NCI-H226): 39.8 µM; GI50 (HCT-116): 6.31 µM; GI50 (SF-295): 15.8 µM; GI50 (OVCAR-4): 10 µM; GI50 (MCF-7): 100 µM; GI50 (T-47D): 3.98 µM; CC50 [3]: > 100 µM; GI50 [4]: 13.1 µM; CC50 [4]: 97.7 µM; CC50 [5]: > 100 µM; TGI, subpanel average [5]: c (compounds showed values ≥ 100 μM); GI50 [6]: 24.7 µM; CC50 [6]: 96.4 µM; TGI, subpanel average [6]: 70.53 µM
COc1cc2ncnc(Nc3ccc(F)c(Cl)c3)c2cc1OCCCN1CCOCC1 [Gefitinib, gefitinib]	2.51 µM	2.51 µM	3.16 µM	7.94 µM	2.51 µM	3.98 µM	3.98 µM	2.51 µM	3.16 µM	3.16 µM	3.98 µM	10 µM	3.16 µM	1.26 µM	1.26 µM	3.16 µM	2.56 µM	12.07 µM	13.86 µM	5.23 µM	GI50 (NCI-H226): 3.98 µM; GI50 (HCT-116): 3.16 µM; GI50 (SF-295): 10 µM; GI50 (T-47D): 7.94 µM; GI50 [4]: 2.05 µM; TGI, subpanel average [5]: 18.47 µM; GI50 [6]: 4.67 µM; TGI, subpanel average [6]: 18.62 µM
CNC(=O)c1cc(Oc2ccc(NC(=O)Nc3ccc(Cl)c(C(F)(F)F)c3)cc2)ccn1 [Sorafenib, sorafenib]	3.16 µM	3.16 µM	2.51 µM	1.99 µM	3.16 µM	2.51 µM	1.99 µM	2.51 µM	3.16 µM	1.99 µM	1.99 µM	1.99 µM	2.51 µM	2.51 µM	2.51 µM	3.16 µM	1.91 µM	42.12 µM	7.99 µM	2.19 µM	GI50 (NCI-H226): 1.99 µM; GI50 (OVCAR-4): 3.16 µM; GI50 (MCF-7): 2.51 µM; CC50 [3]: > 100 µM; CC50 [4]: 49.1 µM; CC50 [5]: 38.1 µM; TGI, subpanel average [5]: 7.94 µM; CC50 [6]: 57.3 µM; TGI, subpanel average [6]: 9.35 µM
